Reference: patent publication US10596164B2, “Anti-clostridium compounds” (Nederlandse Organisatie voor …, priority 2014, dated 2020)
Values after ≈ are worked out from the molar mass of the structure shown. Where two headings read alike, the source gives them in different places. Marks after values point to notes of the source that are not given here.

Tests used:
[1] = test system: C. difficile ATCC 43599 vegetative cells; experiment: MIC test with asymmetrical compounds on C. difficile vegetative cells; assay type: cell-based, Clostridium difficile; settings: for MIC: Clostridioides difficile; for MIC Veg. cells: Table 3
Experimental: (§1) Growth inhibition experiments were performed according to the following protocol: […] Microtiter plate wells were filled with 495 microliter of this suspension to which 5 microliter of selected compounds dissolved in DMSO was added (final concentration of each compound was 10 microgram per ml). This was all performed in an anaerobic cabinet. After filling the microtiter plate was sealed and incubated for 22 hours at 37° C. Inhibiting compounds were selected by visually determining growth inhibition. According to the same protocol as in Example 3 asymmetrical compounds were tested on their inhibitory effect of C. difficile, but also on other bacterial species, such as S. aureus and B. cereus. In the below tables the compounds and the MIC values that have been found for the various micro-organisms are listed. In the tests described in Table 4 and 5 the medium indicated as 'flora' is the SIEM medium described in […], Schols H A, Nauta A, Schoterman […]. High-throughput analysis of the impact of antibiotics on the human intestinal microbiota composition.

[2] = test system: C. difficile ATCC 43599 spores; experiment: MIC test with asymmetrical compounds on C. difficile spores; assay type: cell-based, Clostridium difficile; settings: for MIC: Clostridioides difficile; for MIC spores: Table 3
Experimental: as §1

[3] = test system: Staphylococcus aureus ATCC 6538; experiment: MIC test with asymmetrical compounds on S. aureus; assay type: cell-based
Experimental: as §1

[4] = test system: Bacillus cereus ATCC 11778; experiment: MIC test with asymmetrical compounds on B. cereus; assay type: cell-based
Experimental: as §1

[5] = ATCC43599, Table 3, vegetative cells, tested concentrations 10 μg/ml-0.003 μg/ml if not indicated otherwise, read-out: MIC Veg. cells
[6] = ATCC43599, Table 4, flora (SIEM) medium, tested concentrations 1.2 μg/ml-0.03 μg/ml if not indicated otherwise, read-out: MIC veg. cells flora
[7] = ATCC43599, 22 h, Table 4, SAB model medium, tested concentrations 1.2 μg/ml-0.03 μg/ml if not indicated otherwise, read-out: MIC spores SAB model medium
[8] = ATCC43599, Table 3, spores, tested concentrations 10 μg/ml-0.003 μg/ml if not indicated otherwise, read-out: MIC spores
[9] = ATCC43599, Table 4, flora (SIEM) medium, tested concentrations 1.2 μg/ml-0.03 μg/ml if not indicated otherwise, read-out: MIC spores flora
[10] = ATCC6538, Table 5, read-out: MIC S. aureus ATCC 6538
[11] = ATCC11778, Table 5, read-out: MIC B. cereus ATCC 11778
[12] = vegetative cells, tested concentrations 10 μg/ml-0.003 μg/ml if not indicated otherwise
[13] = Table 4, SAB model medium, tested concentrations 1.2 μg/ml-0.03 μg/ml if not indicated otherwise
[14] = Table 4, flora (SIEM) medium, tested concentrations 1.2 μg/ml-0.03 μg/ml if not indicated otherwise
[15] = spores, tested concentrations 10 μg/ml-0.003 μg/ml if not indicated otherwise
[16] = ATCC43599, 22 h, Table 4, SAB model medium, tested concentrations 1.2 μg/ml-0.03 μg/ml if not indicated otherwise, read-out: MIC veg. cells SAB model medium

SMILES | MIC [1, 5] [µg/mL] | MIC [1, 6] [µg/mL] | MIC [2, 7] [µg/mL] | MIC [2, 8] [µg/mL] | MIC [2, 9] [µg/mL] | MIC [3, 10] [µg/mL] | MIC [4, 11] [µg/mL] | MIC [1, 16] [µg/mL] | further results
CN[C@H](CC(C)C)C(=O)N[C@H]1C(=O)N[C@@H](CC(N)=O)C(=O)N[C@H]2C(=O)N[C@H]3C(=O)N[C@H](C(=O)N[C@H](C(=O)O)c4cc(O)cc(O)c4-c4cc3ccc4O)[C@H](O)c3ccc(c(Cl)c3)Oc3cc2cc(c3O[C@@H]2O[C@H](CO)[C@@H](O)[C@H](O)[C@H]2O[C@H]2C[C@](C)(N)[C@H](O)[C@H](C)O2)Oc2ccc(cc2Cl)[C@H]1O [Vancomycin, reference compound] |  |  |  |  |  |  |  |  | MIC ([1]; ATCC43599, 22 h, read-out: MIC veg. cells SAB model medium): < 0.3 µg/mL; MIC ([1]; ATCC43599, read-out: MIC Veg. cells): < 0.3 µg/mL; MIC ([1]; ATCC43599, read-out: MIC veg. cells flora): < 0.3 µg/mL; MIC ([2]; ATCC43599, 22 h, read-out: MIC spores SAB model medium): < 0.3 µg/mL; MIC ([2]; ATCC43599, read-out: MIC spores): < 0.3 µg/mL; MIC ([2]; ATCC43599, read-out: MIC spores flora): < 0.3 µg/mL; MIC ([3]; ATCC6538, read-out: MIC S. aureus ATCC 6538): 1 µg/mL (≈ 0.69 µM); MIC ([4]; ATCC11778, read-out: MIC B. cereus ATCC 11778): 1 µg/mL (≈ 0.69 µM)
O=C1NC(=O)c2ccc3c4c(ccc1c24)C(=O)N(Cc1cccnc1)C3=O [20141155PBmol13] |  |  |  |  |  | > 100 | > 100 |  | 
Cc1ccc(C)c(N2C(=O)c3ccc4c5c(ccc(c35)C2=O)C(=O)NC4=O)c1 [20141155PBmol23] | 0.07 to 0.15 (≈ 0.189 to 0.405 µM) | 0.3 to 0.6 (≈ 0.81 to 1.62 µM) | 0.07 to 0.15 (≈ 0.189 to 0.405 µM) | 0.03 to 0.07 (≈ 0.081 to 0.189 µM) | > 1.2 | > 100 | 100 (≈ 270 µM) | 0.07 to 0.15 (≈ 0.189 to 0.405 µM) | 
CC(=O)c1cccc(N2C(=O)c3ccc4c5c(ccc(c35)C2=O)C(=O)NC4=O)c1 [20141155PBmol17] | 0.01 to 0.03 (≈ 0.026 to 0.0781 µM) | 0.3 to 0.6 (≈ 0.781 to 1.56 µM) | 0.03 to 0.07 (≈ 0.0781 to 0.182 µM) | 0.01 to 0.03 (≈ 0.026 to 0.0781 µM) | > 1.2 | > 100 | 4 (≈ 10.4 µM) | 0.03 to 0.07 (≈ 0.0781 to 0.182 µM) | 
O=C1NC(=O)c2ccc3c4c(ccc1c24)C(=O)N(c1ccccc1O)C3=O [20141155PBmol10] | 0.3 to 0.6 (≈ 0.837 to 1.67 µM) | 0.15 to 0.3 (≈ 0.419 to 0.837 µM) | 0.3 to 0.6 (≈ 0.837 to 1.67 µM) | 0.15 to 0.3 (≈ 0.419 to 0.837 µM) | > 1.2 | 40 (≈ 112 µM) | 4 (≈ 11.2 µM) | 0.3 to 0.6 (≈ 0.837 to 1.67 µM) | 
O=C1NC(=O)c2ccc3c4c(ccc1c24)C(=O)N(c1ccccc1)C3=O [20141155PBmol19] |  |  |  |  |  | > 100 | > 100 |  | MIC Veg. cells [1, 12]: 0.01 to 0.03 µg/mL; MIC veg. cells SAB model medium [1, 13]: <0.03 µg/mL; MIC veg. cells flora [1, 14]: 0.15 to 0.3 µg/mL; MIC spores [2, 15]: 0.007 to 0.01 µg/mL; MIC spores SAB model medium [2, 13]: <0.03 µg/mL
O=C1NC(=O)c2ccc3c4c(ccc1c24)C(=O)N(c1ccncc1)C3=O [20141155PBmol20] |  |  |  |  |  | > 100 | > 100 |  | 

Continued, in another order:

MIC [1, 5] [µg/mL] | MIC [1, 6] [µg/mL] | MIC [2, 7] [µg/mL] | MIC [2, 8] [µg/mL] | MIC [2, 9] [µg/mL] | MIC [3, 10] [µg/mL] | MIC [4, 11] [µg/mL] | MIC [1, 16] [µg/mL] | SMILES | further results
0.03 to 0.07 (≈ 0.0852 to 0.199 µM) | 0.15 to 0.3 (≈ 0.426 to 0.852 µM) | 0.03 to 0.07 (≈ 0.0852 to 0.199 µM) | 0.01 to 0.03 (≈ 0.0284 to 0.0852 µM) | 0.3 to 0.6 (≈ 0.852 to 1.7 µM) | > 100 | 40 (≈ 114 µM) |  | CC(=O)OCCN1C(=O)c2ccc3c4c(ccc(c24)C1=O)C(=O)NC3=O [20141155PBmol21] | 
 |  |  |  | 0.6 to 1.2 (≈ 1.75 to 3.51 µM) |  |  |  | O=C1NC(=O)c2ccc3c4c(ccc1c24)C(=O)N(c1ccccc1)C3=O [4456-3445 (6739753)] | MIC Veg. cells [1, 12]: <0.3* ug/ml; MIC veg. cells SAB model medium [1, 13]: <0.3 µg/mL; MIC veg. cells flora [1, 14]: 0.6 to 1.2 µg/mL; MIC spores [2, 15]: <0.3* ug/ml; MIC spores SAB model medium [2, 13]: <0.3 µg/mL
0.07 to 0.15 (≈ 0.195 to 0.419 µM) | 0.6 to 1.2 (≈ 1.67 to 3.35 µM) | 0.07 to 0.15 (≈ 0.195 to 0.419 µM) | 0.03 to 0.07 (≈ 0.0837 to 0.195 µM) | 0.3 to 0.6 (≈ 0.837 to 1.67 µM) | 40 (≈ 112 µM) | 4 (≈ 11.2 µM) | 0.07 to 0.15 (≈ 0.195 to 0.419 µM) | O=C1NC(=O)c2ccc3c4c(ccc1c24)C(=O)N(c1ccc(O)cc1)C3=O [20141155PBmol37] | 
0.15 to 0.3 (≈ 0.483 to 0.967 µM) | 0.07 to 0.15 (≈ 0.226 to 0.483 µM) | 0.3 to 0.6 (≈ 0.967 to 1.93 µM) | 0.15 to 0.3 (≈ 0.483 to 0.967 µM) | 0.6 to 1.2 (≈ 1.93 to 3.87 µM) | 40 (≈ 129 µM) | 4 (≈ 12.9 µM) | 0.3 to 0.6 (≈ 0.967 to 1.93 µM) | O=C1NC(=O)c2ccc3c4c(ccc1c24)C(=O)N(CCO)C3=O [20141155PBmol57] | 
0.03 to 0.07 (≈ 0.0856 to 0.2 µM) | 0.3 to 0.6 (≈ 0.856 to 1.71 µM) | 0.03 to 0.07 (≈ 0.0856 to 0.2 µM) | 0.01 to 0.03 (≈ 0.0285 to 0.0856 µM) | 0.3 to 0.6 (≈ 0.856 to 1.71 µM) | > 100 | > 100 | 0.03 to 0.07 (≈ 0.0856 to 0.2 µM) | O=C1NC(=O)c2ccc3c4c(ccc1c24)C(=O)N(CC1CCCO1)C3=O (stereo not shown) [20141155PBmol30] | 
0.07 to 0.15 (≈ 0.207 to 0.443 µM) | 0.15 to 0.3 (≈ 0.443 to 0.887 µM) | 0.07 to 0.15 (≈ 0.207 to 0.443 µM) | 0.03 to 0.07 (≈ 0.0887 to 0.207 µM) | 0.15 to 0.3 (≈ 0.443 to 0.887 µM) | > 100 | 4 (≈ 11.8 µM) | 0.07 to 0.15 (≈ 0.207 to 0.443 µM) | O=C1NC(=O)c2ccc3c4c(ccc1c24)C(=O)N(CCCCO)C3=O [20141155PBmol41] | 
0.07 to 0.15 (≈ 0.204 to 0.437 µM) | 0.15 to 0.3 (≈ 0.437 to 0.874 µM) | 0.07 to 0.15 (≈ 0.204 to 0.437 µM) | 0.07 to 0.15 (≈ 0.204 to 0.437 µM) | 0.3 to 0.6 (≈ 0.874 to 1.75 µM) | 40 (≈ 117 µM) | 4 (≈ 11.7 µM) | 0.07 to 0.15 (≈ 0.204 to 0.437 µM) | O=C1NC(=O)c2ccc3c4c(ccc1c24)C(=O)N(c1ccccn1)C3=O [20141155PBmol18] | 
0.07 to 0.15 (≈ 0.174 to 0.373 µM) | 0.6 to 1.2 (≈ 1.49 to 2.98 µM) | 0.07 to 0.15 (≈ 0.174 to 0.373 µM) | 0.03 to 0.07 (≈ 0.0746 to 0.174 µM) | 0.6 to 1.2 (≈ 1.49 to 2.98 µM) | 10 (≈ 24.9 µM) | 4 (≈ 9.94 µM) | 0.07 to 0.15 (≈ 0.174 to 0.373 µM) | COc1ccc(OC)c(N2C(=O)c3ccc4c5c(ccc(c35)C2=O)C(=O)NC4=O)c1 [20141155PBmol46] | 
0.07 to 0.15 (≈ 0.195 to 0.419 µM) | 0.6 to 1.2 (≈ 1.67 to 3.35 µM) | 0.07 to 0.15 (≈ 0.195 to 0.419 µM) | 0.03 to 0.07 (≈ 0.0837 to 0.195 µM) | 0.6 to 1.2 (≈ 1.67 to 3.35 µM) | > 100 | 10 (≈ 27.9 µM) | 0.15 to 0.3 (≈ 0.419 to 0.837 µM) | O=C1NC(=O)c2ccc3c4c(ccc1c24)C(=O)N(c1cccc(O)c1)C3=O [20141155PBmol08] | 
< 0.3 | < 0.3 | < 0.3 | < 0.3 | < 0.3 |  |  | < 0.3 | Cc1ncc([N+](=O)[O-])n1CCO [Metronadizol, reference compound] | 
0.3 to 0.6 (≈ 0.847 to 1.69 µM) | 0.3 to 0.6 (≈ 0.847 to 1.69 µM) | 0.3 to 0.6 (≈ 0.847 to 1.69 µM) | 0.3 to 0.6 (≈ 0.847 to 1.69 µM) | 0.6 to 1.2 (≈ 1.69 to 3.39 µM) |  |  | 0.6 to 1.2 (≈ 1.69 to 3.39 µM) | O=C1c2ccc3c4c(ccc(c24)C(=O)N1CCO)C(=O)N(CCO)C3=O [A0547/0025269] | 
